Values joined by “and” are separate entries in the source; they are usually repeats but may differ in a detail not shown here. Equal values may be shown once. After the bases stand the sugars from the 5' end (letter, count) and the backbone: PS all phosphorothioate, else s phosphorothioate and o phosphodiester by linkage. Methylation of C is not given here. e = 2'-O-(2-methoxyethyl) (MOE); k = constrained ethyl (cEt); d = 2'-deoxy (DNA)

The series deals with IRF4. The conditions noted are these: ASO.

On to GTACGAGCACATGTCA (sugars k3 d10 k3, PS), for which the target mRNA inhibition (MM.1R, 1 µM) amounted to 0%. On the same count and under the same terms, as for TGTAGAAGCCCACAAG (sugars k3 d10 k3, PS), the figure is -7%; as for “GACAGTGACTTGCATC (sugars kkdddddddddkdkdk, PS)”, -7%; as for GCACAGCCCTTGGTTA (sugars k3 d10 k3, PS), 3%. As for GTGTAATGTAGGGATA (sugars k3 d10 k3, PS), the target mRNA inhibition (SK-MEL-28, 4 µM) came out at 64%. For “TAGTATGAGAAACGGC (sugars kkkddddddddkekek, PS)”, the target mRNA inhibition (MM.1R, 1 µM) amounted to 30%.

As to GTTCTAGGGTCCTCCT (sugars k3 d10 k3, PS), the target mRNA inhibition (SK-MEL-28, 4 µM) came to 50%. In the case of ACCTACCTGCCCTTGG (sugars k3 d10 k3, PS), for the setting “SK-MEL-28, 4 µM”, the target mRNA inhibition came to 28%.

“TGTAGTATGAGAAACG (sugars kkdddddddddekeke, PS)”: the target mRNA inhibition (MM.1R, 1 µM) was 13%.

Consider “AAGCATTTTATCATCC (sugars kkkddddddddkekek, PS)”, for which, where the note is “MM.1R, 1 µM”, the target mRNA inhibition turned out to be 10%. Take GATAGGAAGCACTGGC (sugars k3 d10 k3, PS): under “SK-MEL-28, 4 µM”, the target mRNA inhibition was determined as 62%. In the case of AAGCAGTGATGTCAGG (sugars k3 d10 k3, PS), the target mRNA inhibition reads like this: (MM.1R, 0.0625 µM) 8%; (MM.1R, 0.25 µM) 25%; (MM.1R, 1 µM) 66% and 65%; (MM.1R, 4 µM) 75%.

GTCACGCAATGGCAAA (sugars k3 d10 k3, PS): the target mRNA inhibition (MM.1R, 1 µM) is -2%. Take CAATACTGTAAGGGCT (sugars k3 d10 k3, PS): the target mRNA inhibition (SK-MEL-28, 4 µM) amounted to 56%.

Consider AGTGACTTGCATCCAT (sugars k3 d10 k3, PS), for which the target mRNA inhibition reads like this: (MM.1R, 0.0625 µM) 10%; (MM.1R, 0.25 µM) 28%; (MM.1R, 1 µM) 67% and 58%; (MM.1R, 4 µM) 78%. In the case of ATACAAAACGGACTGG (sugars k3 d10 k3, PS), under “SK-MEL-28, 4 µM”, the target mRNA inhibition amounted to 15%. As for GGAGATACTTGTACTG (sugars k3 d10 k3, PS), the target mRNA inhibition (MM.1R, 0.0625 µM) came to 2%; the target mRNA inhibition (MM.1R, 0.074 µM) is 16%; the target mRNA inhibition (MM.1R, 0.222 µM) amounted to 25%; the target mRNA inhibition (MM.1R, 0.25 µM) was determined as 26%; the target mRNA inhibition (MM.1R, 0.666 µM) turned out to be 48%; the target mRNA inhibition (MM.1R, 1 µM) was found to be 55%. In addition, the target mRNA inhibition was found to be 77% (MM.1R, 2 µM); 87% (MM.1R, 4 µM); 66% (SK-MEL-28, 4 µM). For the sequence AGCAAGTGTCTAAAGT (sugars k3 d10 k3, PS), the target mRNA inhibition was -1% (MM.1R, 0.0625 µM); -8% (MM.1R, 0.074 µM); 6% (MM.1R, 0.222 µM); 12% (MM.1R, 0.25 µM); 11% (MM.1R, 0.666 µM); 22% (MM.1R, 1 µM). In addition, the target mRNA inhibition is, setting by setting: (MM.1R, 2 µM) 33%; (MM.1R, 4 µM) 51%; (SK-MEL-28, 4 µM) 62%. In the case of ATGGATAGTTTCTCAT (sugars k3 d10 k3, PS), where the note is “SK-MEL-28, 4 µM”, the target mRNA inhibition was 25%. With “ATGTGATAGCTGAGCT (sugars k2 d9 e3 k2, PS)”, the target mRNA inhibition (MM.1R, 1 µM) is 0%. Take ATTCTTAGAATGCATA (sugars k4 d8 k4, PS): where the note is “SK-MEL-28, 4 µM”, the target mRNA inhibition came out at 33%. The same measure, in the same setting: as for ATCCACACCAATGGCA (sugars k3 d10 k3, PS), the figure is 34%; as for CGCCATGGCTGATCGC (sugars k3 d10 k3, PS), 53%. On the same count and under the same terms, as for GCCTTGAAGAGCGCGG (sugars k3 d10 k3, PS), the figure is 9%; as for GAAGAAGGCACCTTCG (sugars k3 d10 k3, PS), 25%. Regarding “CTGCTTGAGGTTTTCC (sugars k2 d9 e3 k2, PS)”, the target mRNA inhibition (MM.1R, 1 µM) amounted to 31%. For TCTTTATGCGAAGAAT (sugars k3 d10 k3, PS), the target mRNA inhibition (SK-MEL-28, 4 µM) turned out to be 42%. With TACAAGGTCTGAGTTG (sugars k3 d10 k3, PS), under “MM.1R, 1 µM”, the target mRNA inhibition was -6%. AAGAAGCACTGGCATC (sugars k3 d10 k3, PS): for the setting “SK-MEL-28, 4 µM”, the target mRNA inhibition stood at 23%. As to GCAATCTTAACCTGGA (sugars k3 d10 k3, PS), the target mRNA inhibition reads like this: (MM.1R, 0.0625 µM) -3% and 3%; (MM.1R, 0.25 µM) 8%; (MM.1R, 1 µM) 37% and 38%; (MM.1R, 4 µM) 70% and 71%. As for “AAGCTTGATAAAGGCT (sugars k2 d9 e3 k2, PS)”, the target mRNA inhibition (MM.1R, 1 µM) was determined as 53%. For “GGAAGTTTACACTGGA (sugars k3 d9 k3 e1, PS)”, the target mRNA inhibition runs as follows: (MM.1R, 0.074 µM) 20%; (MM.1R, 0.222 µM) 45%; (MM.1R, 0.666 µM) 77%; (MM.1R, 1 µM) 78%; (MM.1R, 2 µM) 91%. On to CGGACGAACGCGCAAA (sugars k3 d10 k3, PS), for which the target mRNA inhibition (SK-MEL-28, 4 µM) stood at 39%. With GCAAAGCAAGTGTCTA (sugars k3 d10 k3, PS), the target mRNA inhibition (SK-MEL-28, 4 µM) is 43%.

Consider TTAGACTGACAGCCGA (sugars k3 d10 k3, PS), for which the target mRNA inhibition (SK-MEL-28, 4 µM) stood at 53%. As for “TCAGTTTGTGAAGCAT (sugars k3 d9 k3 e1, PS)”, the target mRNA inhibition by setting is: (MM.1R, 0.074 µM) 28%; (MM.1R, 0.222 µM) 22%; (MM.1R, 0.666 µM) 43%; (MM.1R, 1 µM) 58%; (MM.1R, 2 µM) 64%.

Take TTCCATGCTTGTCTCG (sugars k3 d10 k3, PS): for the setting “SK-MEL-28, 4 µM”, the target mRNA inhibition came out at 62%. The same measure, in the same setting: as for CGCGGACGCACGGAGA (sugars k3 d10 k3, PS), the figure is 19%; as for CATTGGAGGAGGGTTG (sugars k3 d10 k3, PS), -2%; as for TACTCTTAGGCACATC (sugars k3 d10 k3, PS), 59%. For AGAGCCCCTACCTTTT (sugars k3 d10 k3, PS), the target mRNA inhibition (MM.1R, 1 µM) was -7%. In the case of TCAAAAGTCTTAAGGG (sugars k3 d10 k3, PS), the target mRNA inhibition (SK-MEL-28, 4 µM) is 7%.

Take “AGCAGTGATGTCAGGT (sugars kkdddddddddkdkdk, PS)”: the target mRNA inhibition (MM.1R, 1 µM) is 55% and 48%. Regarding CCTGTACACTTTGTAC (sugars k3 d10 k3, PS), the target mRNA inhibition (MM.1R, 1 µM) was -2%. On the same count and under the same terms, the result for TTCACACTGCCGTGAT (sugars k3 d10 k3, PS) reads -12%.

As for TTATCTTCCCTTAGGA (sugars k3 d10 k3, PS), the target mRNA inhibition (SK-MEL-28, 4 µM) turned out to be 28%. As to AGACAAGTGCTAGGAT (sugars k3 d10 k3, PS), the target mRNA inhibition (SK-MEL-28, 4 µM) is 56%. Regarding AGCAATTAGCTCTTCT (sugars k3 d10 k3, PS), the target mRNA inhibition (MM.1R, 1 µM) stood at 11%. With GAGCACCGCGCCGGAG (sugars k3 d10 k3, PS), the target mRNA inhibition (SK-MEL-28, 4 µM) is 7%. Take GCCTGAGTTACCGCAT (sugars k3 d10 k3, PS): the target mRNA inhibition is -1% (MM.1R, 0.0625 µM); -3% (MM.1R, 0.074 µM); -5% (MM.1R, 0.222 µM); 0% (MM.1R, 0.25 µM); -9% (MM.1R, 0.666 µM); 13% (MM.1R, 1 µM). In addition, the target mRNA inhibition was determined as 5% (MM.1R, 2 µM); 41% (MM.1R, 4 µM); 70% (SK-MEL-28, 4 µM).

For ACGCACGGAGAGGGCG (sugars k3 d10 k3, PS), the target mRNA inhibition (SK-MEL-28, 4 µM) was 1%.

For the sequence “AAGTGTCTAAAGTCCC (sugars kkdddddddddekeke, PS)”, the target mRNA inhibition (MM.1R, 1 µM) is 13% and -1%. Regarding TTATTAAGTCAATCAC (sugars k3 d10 k3, PS), for the setting “SK-MEL-28, 4 µM”, the target mRNA inhibition is -1%.

As to ACAGGCGCGGACGCAC (sugars k3 d10 k3, PS), the target mRNA inhibition (SK-MEL-28, 4 µM) turned out to be 20%. On the same count and under the same terms, the result for GGCCCTGTCAAACTAT (sugars k3 d10 k3, PS) reads 40%.

In the case of “CCTCAGTTTGTGAAGC (sugars kkkddddddddkekek, PS)”, the target mRNA inhibition (MM.1R, 1 µM) turned out to be 3%. In the case of “AGCTTGATAAAGGCTG (sugars kkdddddddddkekek, PS)”, the target mRNA inhibition (MM.1R, 1 µM) came out at 16%. In the case of “ACTGTTACCGATGCTT (sugars kkddddddddddkeke, PS)”, where the note is “MM.1R, 1 µM”, the target mRNA inhibition is 30% and 48%.

Consider CGTTCTCCCACACCAG (sugars k3 d10 k3, PS), for which, for the setting “SK-MEL-28, 4 µM”, the target mRNA inhibition was found to be 48%. Still for that read-out and setting: the result for GGCTAAACCTGGCACC (sugars k3 d10 k3, PS) reads 40%. In the case of CGAGGTTGCCGAGATA (sugars k3 d10 k3, PS), for the setting “MM.1R, 1 µM”, the target mRNA inhibition was 66% and 60%. For ATAGTAAGTTCTAGTC (sugars k3 d10 k3, PS), under “MM.1R, 1 µM”, the target mRNA inhibition turned out to be 11%. For the sequence TGCTGATGTGTTCTGG (sugars k3 d10 k3, PS), for the setting “SK-MEL-28, 4 µM”, the target mRNA inhibition was 67% and 58%. On the same count and under the same terms, as for GACACTTTTAGAGAGG (sugars k3 d10 k3, PS), the figure is 87% and 78%. Take “TACTGCTTGAGGTTTT (sugars kkkdddddddddkeke, PS)”: the target mRNA inhibition (MM.1R, 1 µM) was determined as 7%. As for CGTCTTCCAGGTGGGA (sugars k3 d10 k3, PS), for the setting “SK-MEL-28, 4 µM”, the target mRNA inhibition worked out at 16%. Consider CTGGTAACTGTATGGA (sugars k3 d10 k3, PS), for which the target mRNA inhibition (MM.1R, 1 µM) came out at 17%. On to CTGCAGTTCACGAAAC (sugars k3 d10 k3, PS), for which, where the note is “SK-MEL-28, 4 µM”, the target mRNA inhibition is 38%.

For TTGCTAGATTCTCCCT (sugars k3 d10 k3, PS), the target mRNA inhibition (MM.1R, 1 µM) was 16%. Regarding TAGAATGAGAGGTGTC (sugars k3 d10 k3, PS), the target mRNA inhibition (SK-MEL-28, 4 µM) came out at 29%. ATTTATACTGTCTGGT (sugars k3 d10 k3, PS): under “SK-MEL-28, 4 µM”, the target mRNA inhibition is 49%. TGCCAAAGAGCCCAAT (sugars k3 d10 k3, PS): the target mRNA inhibition (MM.1R, 1 µM) was -19%. Turning to CATCACCGAACACACC (sugars k3 d10 k3, PS), the target mRNA inhibition (SK-MEL-28, 4 µM) came out at 24%.

CGTATTTGTCGAGATC (sugars k3 d10 k3, PS): where the note is “SK-MEL-28, 4 µM”, the target mRNA inhibition worked out at 50%. Same read-out and setting: as for ACCAAGAAATGCACCT (sugars k3 d10 k3, PS), the figure is 57%; as for AACAAAAGGTTCCCGC (sugars k3 d10 k3, PS), 40%. On to “ACAGTGACTTGCATCC (sugars kkdddddddddekeke, PS)”, for which the target mRNA inhibition (MM.1R, 1 µM) came out at 9%.

As to TCACAGTGATCATCAA (sugars k3 d10 k3, PS), the target mRNA inhibition (SK-MEL-28, 4 µM) worked out at 43%.

Values taken from the OligoGym collection.
